According to patent US6663881B2 (priority 1993, dated 2003):

Legend:
[1] = tested on: swine coronary arteries traumatized by embolectomy or over-sized PTCA balloon; assay: Swine coronary artery study, MIC catheter infusion, morphometry at 4 weeks (Table 15); assay type: in vivo; conditions: 8.0 μg/ml
Description: Swine coronary arteries were also traumatized by embolectomy or over-sized PTCA balloon, and then 8-16 ml of cytochalasin B at 8.0 μg/ml was infused into the arterial wall with a MIC catheter to achieve a therapeutic dose. Controls included a diluent control and a traumatized untreated control, and all animals were sacrificed 4 weeks after intervention and coronary arteries were fixed by perfusion. Morphometry was performed on selected sections from proximal, treated and distal segments of coronary arteries (Table 15).

[2] = tested on: Vascular smooth muscle cells (BO54); assay: Scratch-migration assay; assay type: cell-based, baboon; design: key to Migration Grade in an Undisturbed Region of the Well / Migration Grade in the Cleared Area of the Well: −=no migration; +1=minimal; +2=mild; +3=moderate; +4=marked (maximum density; limit of cell contact inhibition) migration
Description: Scratch assays to determine the extent of smooth muscle cell migration inhibition by cytochalasin B were performed in accordance with the following protocol:
Vascular smooth muscle cells (BO54) were derived from explants of baboon aortic smooth muscle, as described in Example 10. The cells were grown in flat bottom, six well tissue culture plates, which hold about 5 ml of medium. The vascular smooth muscle cells were plated at 200,000 cells/well and placed at 37° C. in a humidified 5% CO2 incubator for 18 hours. The wells were then scratched with a sterile portion of a single edge razor blade that was held by clamp or pliers and was brought aseptically into contact with the bottom of the well at a 90° angle. The cells from a small area along the scratch were removed by a sterile cotton tipped applicator while the blade was in contact with the bottom of the well. After incubation, the presence of cells in the “scratched” area is indicative of cell migration across the scratch line.
Briefly, a stock solution of cytochalasin B (Sigma Chemical Co.) in dimethyl sulfoxide (DMSO) at 1 mg/ml was prepared. Test dilutions of cytochalasin B or control medium were added. Each experiment included two sets of plates:
A set: Test agent exposure for 1, 3, 6, 8 and 10 days only; and
B set: Test agent exposure for 1, 3, 6, 8 and 10 days, followed by a seven day recovery time with control medium.
Both sets of plates were fixed (10% formalin in PBS) and stained (0.02% crystal violet) at the end of the timed exposures. Test concentrations for cytochalasin B were 1, 0.1 and 0.01 μg/ml, and a negative medium control was included. Fresh medium and drug were supplied 3 times per week.
In this Table, “M” indicates Migration Grade, wherein −=no migration; +1=minimal; +2=mild; +3=moderate; and +4=marked (maximum density; limit of cell contact inhibition) migration of vascular smooth muscle cells into the cleared area adjacent to the scratch. In this Table, “T” denotes a morphological Toxicity Grade, wherein −=no toxicity; +1=minimal; +2=mild; +3=moderate; and +4=marked toxicity. The migration results are expressed as “Grade in the Cleared Area of the Well/Grade in an Undisturbed Region of the Well.” The toxicity values represent a grade for all cells in each well.

[3] = 7-day Recovery Post Exposure, Day 1, 0.01 μg/mL
[4] = 7-day Recovery Post Exposure, Day 1, 0.1 μg/mL
[5] = 7-day Recovery Post Exposure, Day 1, 1.0 μg/mL
[6] = 7-day Recovery Post Exposure, Day 3, 0.01 μg/mL
[7] = 7-day Recovery Post Exposure, Day 3, 0.1 μg/mL
[8] = 7-day Recovery Post Exposure, Day 6, 0.1 μg/mL
[9] = 7-day Recovery Post Exposure, Day 6, 1.0 μg/mL
[10] = 7-day Recovery Post Exposure, Day 8, 0.01 μg/mL
[11] = 7-day Recovery Post Exposure, Day 8, 0.1 μg/mL
[12] = 7-day Recovery Post Exposure, Day 8, 1.0 μg/mL
[13] = 7-day Recovery Post Exposure, Day 10, 0.01 μg/mL
[14] = 7-day Recovery Post Exposure, Day 10, 0.1 μg/mL
[15] = 7-day Recovery Post Exposure, Day 10, 1.0 μg/mL
[16] = Continuous Exposure, Day 1, 0.01 μg/mL
[17] = Continuous Exposure, Day 1, 0.1 μg/mL
[18] = Continuous Exposure, Day 6, 0.01 μg/mL
[19] = Continuous Exposure, Day 6, 0.1 μg/mL
[20] = Continuous Exposure, Day 8, 0.01 μg/mL
[21] = Continuous Exposure, Day 8, 0.1 μg/mL
[22] = Continuous Exposure, Day 10, 0.01 μg/mL
[23] = Continuous Exposure, Day 10, 0.1 μg/mL

With `C=C1[C@@H](C)[C@H]2[C@H](Cc3ccccc3)NC(=O)[C@]23OC(=O)/C=C/[C@H](O)CCC[C@@H](C)C/C=C/[C@H]3[C@@H]1O` [cytochalasin B] the “arterial remodeling (area bounded by the external elastic lamina)” value [1] was “trend toward beneficial arterial remodeling”, the luminal area [1] was “did not result in a statistically significant increase in luminal area” and the “morphological toxicity grade” value ([2]; 0.1 μg/ml, continuous exposure) was −3 to +1. For the same molecule, the “Migration Grade in an Undisturbed Region of the Well” value [2, 3] was “+4”, the “Migration Grade in the Cleared Area of the Well” value [2, 3] was “+3” and the “Migration Grade in an Undisturbed Region of the Well” value [2, 4] was “+4”. The “Migration Grade in the Cleared Area of the Well” value [2, 4] was “+3”, the “Migration Grade in an Undisturbed Region of the Well” value [2, 5] was “+3” and the “Migration Grade in the Cleared Area of the Well” value [2, 5] was “+2”. For the same molecule, the “Migration Grade in an Undisturbed Region of the Well” value [2, 6] was “+4”, the “Migration Grade in the Cleared Area of the Well” value [2, 6] was “+3” and the “Migration Grade in an Undisturbed Region of the Well” value [2, 7] was “+4”. The “Migration Grade in the Cleared Area of the Well” value [2, 7] was “+3”, the “Migration Grade in an Undisturbed Region of the Well” value ([2]; 7-day Recovery Post Exposure, Day 6, 0.01 μg/mL) was “+4/+4” and the “Migration Grade in an Undisturbed Region of the Well” value [2, 8] was “+4”. The “Migration Grade in the Cleared Area of the Well” value [2, 8] was “+3”, the “Migration Grade in an Undisturbed Region of the Well” value [2, 9] was “+3” and the “Migration Grade in the Cleared Area of the Well” value [2, 9] was “+2”. For the same molecule, the “Migration Grade in an Undisturbed Region of the Well” value [2, 10] was “+4/+4”, the “Migration Grade in the Cleared Area of the Well” value [2, 10] was “+4/+4” and the “Migration Grade in an Undisturbed Region of the Well” value [2, 11] was “+4”. The “Migration Grade in the Cleared Area of the Well” value [2, 11] was “+3”, the “Migration Grade in an Undisturbed Region of the Well” value [2, 12] was “+3” and the “Migration Grade in the Cleared Area of the Well” value [2, 12] was “+2”. The “Migration Grade in an Undisturbed Region of the Well” value [2, 13] was “+4/+4”, the “Migration Grade in the Cleared Area of the Well” value [2, 13] was “+4/+4” and the “Migration Grade in an Undisturbed Region of the Well” value [2, 14] was “+4/+4”. For the same molecule, the “Migration Grade in the Cleared Area of the Well” value [2, 14] was “+4/+4”, the “Migration Grade in an Undisturbed Region of the Well” value [2, 15] was “+3” and the “Migration Grade in the Cleared Area of the Well” value [2, 15] was “+2”. The “Migration Grade in an Undisturbed Region of the Well” value [2, 16] was “+3”, the “Migration Grade in the Cleared Area of the Well” value [2, 16] was “+1” and the “Migration Grade in an Undisturbed Region of the Well” value [2, 17] was “+3”. The “Migration Grade in the Cleared Area of the Well” value [2, 17] was “+1”, the “Migration Grade in an Undisturbed Region of the Well” value ([2]; Continuous Exposure, Day 1, 1.0 μg/mL) was “+2” and the “Migration Grade in an Undisturbed Region of the Well” value ([2]; Continuous Exposure, Day 3, 0.1 μg/mL) was “+4”. The “Migration Grade in an Undisturbed Region of the Well” value [2, 18] was “+4”, the “Migration Grade in the Cleared Area of the Well” value [2, 18] was “+3” and the “Migration Grade in an Undisturbed Region of the Well” value [2, 19] was “+4”. For the same molecule, the “Migration Grade in the Cleared Area of the Well” value [2, 19] was “+2”, the “Migration Grade in an Undisturbed Region of the Well” value ([2]; Continuous Exposure, Day 6, 1.0 μg/mL) was “+2” and the “Migration Grade in an Undisturbed Region of the Well” value [2, 20] was “+4”. The “Migration Grade in the Cleared Area of the Well” value [2, 20] was “+3”, the “Migration Grade in an Undisturbed Region of the Well” value [2, 21] was “+4” and the “Migration Grade in the Cleared Area of the Well” value [2, 21] was “+2”. The “Migration Grade in an Undisturbed Region of the Well” value ([2]; Continuous Exposure, Day 8, 1.0 μg/mL) was “+2”, the “Migration Grade in an Undisturbed Region of the Well” value [2, 22] was “+4” and the “Migration Grade in the Cleared Area of the Well” value [2, 22] was “+3”. The “Migration Grade in an Undisturbed Region of the Well” value [2, 23] was “+4”, the “Migration Grade in the Cleared Area of the Well” value [2, 23] was “+2” and the “Migration Grade in an Undisturbed Region of the Well” value ([2]; Continuous Exposure, Day 10, 1.0 μg/mL) was “+2”.
